Assay results reported in the supplement of paper PMC10307832.

Experiments:
Experiment in all cases: relative viability (nuclei count vs DMSO), 5 days (fraction); higher = more cells survive
BEN = test system: BEN
Method in brief: (§1)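 One day after seeding in 1536-well plates, lung cancer cell lines were dosed by pin tool. Dosing was either single-drug or a fixed anchor-drug dose plus five library-drug doses (not always all listed) in √10 steps. After 5 days, nuclei were stained in one fix-and-stain step and counted on 4× images, and relative viability is the nuclei count of treated wells over that of vehicle wells, given as the median of duplicate plates.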

NCI-H1666 = test system: NCI-H1666
Method in brief: as §1

NCI-H1993 = test system: NCI-H1993
Method in brief: as §1

A-427 = test system: A-427
Method in brief: as §1

NCI-H460 = test system: NCI-H460
Method in brief: as §1

NCI-H23 = test system: NCI-H23
Method in brief: as §1

EKVX = test system: EKVX
Method in brief: as §1

LC-2-ad = test system: LC-2-ad
Method in brief: as §1

LU99A = test system: LU99A
Method in brief: as §1

NCI-H838 = test system: NCI-H838
Method in brief: as §1

NCI-H650 = test system: NCI-H650
Method in brief: as §1

NCI-H1355 = test system: NCI-H1355
Method in brief: as §1

## O=c1[nH]c2ccccc2n1C1CCN(CCCC(c2ccc(F)cc2)c2ccc(F)cc2)CC1 [Pimozide] + CC(=O)Nc1cccc(-n2c(=O)n(C3CC3)c(=O)c3c(Nc4ccc(I)cc4F)n(C)c(=O)c(C)c32)c1 [Trametinib] (partner 0.02 µM)
BEN; first compound 0.8 µM
  relative viability: 1.01
BEN; first compound 2.53 µM
  relative viability: 0.984
BEN; first compound 8 µM
  relative viability: 1.29
NCI-H1666; first compound 0.08 µM
  relative viability: 0.888
NCI-H1666; first compound 0.253 µM
  relative viability: 0.804
NCI-H1666; first compound 0.8 µM
  relative viability: 0.835
NCI-H1666; first compound 2.53 µM
  relative viability: 0.866
NCI-H1666; first compound 8 µM
  relative viability: 0.787
NCI-H1993; first compound 0.08 µM
  relative viability: 0.561
NCI-H1993; first compound 0.253 µM
  relative viability: 0.495
NCI-H1993; first compound 0.8 µM
  relative viability: 0.596
NCI-H1993; first compound 2.53 µM
  relative viability: 0.484
NCI-H1993; first compound 8 µM
  relative viability: 0.553
A-427; first compound 0.08 µM
  relative viability: 0.771
A-427; first compound 0.253 µM
  relative viability: 0.75
A-427; first compound 0.8 µM
  relative viability: 0.701
A-427; first compound 2.53 µM
  relative viability: 0.682
A-427; first compound 8 µM
  relative viability: 0.68
NCI-H460; first compound 0.08 µM
  relative viability: 0.239
NCI-H460; first compound 0.253 µM
  relative viability: 0.0857
NCI-H460; first compound 0.8 µM
  relative viability: 0.131
NCI-H460; first compound 2.53 µM
  relative viability: 0.185
NCI-H460; first compound 8 µM
  relative viability: 0.14
NCI-H23; first compound 0.08 µM
  relative viability: 0.377
NCI-H23; first compound 0.253 µM
  relative viability: 0.369
NCI-H23; first compound 0.8 µM
  relative viability: 0.291
NCI-H23; first compound 2.53 µM
  relative viability: 0.369
NCI-H23; first compound 8 µM
  relative viability: 0.318
EKVX; first compound 0.253 µM
  relative viability: 0.294
EKVX; first compound 0.8 µM
  relative viability: 0.31
EKVX; first compound 2.53 µM
  relative viability: 0.344
EKVX; first compound 8 µM
  relative viability: 0.326
LC-2-ad; first compound 0.08 µM
  relative viability: 0.886
LC-2-ad; first compound 0.253 µM
  relative viability: 0.819
LC-2-ad; first compound 0.8 µM
  relative viability: 0.893
LC-2-ad; first compound 2.53 µM
  relative viability: 0.904
LC-2-ad; first compound 8 µM
  relative viability: 0.897
LU99A; first compound 0.08 µM
  relative viability: 0.66
LU99A; first compound 0.8 µM
  relative viability: 0.522
LU99A; first compound 2.53 µM
  relative viability: 0.48
LU99A; first compound 8 µM
  relative viability: 0.524
NCI-H838; first compound 0.08 µM
  relative viability: 0.536
NCI-H838; first compound 0.253 µM
  relative viability: 0.561
NCI-H838; first compound 0.8 µM
  relative viability: 0.482
NCI-H838; first compound 2.53 µM
  relative viability: 0.528
NCI-H838; first compound 8 µM
  relative viability: 0.571
NCI-H650; first compound 0.08 µM
  relative viability: 0.97
NCI-H650; first compound 0.253 µM
  relative viability: 0.962
NCI-H650; first compound 0.8 µM
  relative viability: 0.885
NCI-H650; first compound 2.53 µM
  relative viability: 1.06
NCI-H650; first compound 8 µM
  relative viability: 0.974
NCI-H1355; first compound 0.08 µM
  relative viability: 0.382
NCI-H1355; first compound 0.253 µM
  relative viability: 0.428
NCI-H1355; first compound 0.8 µM
  relative viability: 0.411
NCI-H1355; first compound 2.53 µM
  relative viability: 0.39
NCI-H1355; first compound 8 µM
  relative viability: 0.454
